According to US12390447B2, “Sirtuin 6 protein deacylase (SIRT6) activators” (Wisconsin Alumni Research Foundation, priority 2019, dated 2025):

What was measured:
Assay type in all cases: biochemical
SIRT6 [1] = target: T1, SIRT6 (Homo sapiens, UniProt Q8N6T7); test: Small molecule SIRT6 activator screen (H3K9ac peptide deacetylation, HPLC); conditions: compound 100 μM; SIRT6 1 μM; H3K9ac peptide 20 μM; 0.5 mM NAD+
Protocol: Mastermix containing SIRT6, buffer, and H3K9ac peptide were distributed to wells using Microflex peristaltic dispenser (Beckman). Plates were spun and preheated to 37° C. before addition of NAD^+ using peristaltic dispenser. After 60 minutes reactions were quenched with 2% TFA final using peristaltic dispenser then sealed and spun again before in-house HPLC separation and quantification of substrate and product peptides. Reaction conditions were 1 μM SIRT6, 0.5 mM NAD^+, […] (4-16), 20 mM potassium phosphate pH 7.5, 10% DMSO, and either 10 or 100 μM compound determined by 10-fold dilution of stock library concentration.
All sirtuin deacylation assays were carried out at 37° C. in 20 mM potassium phosphate pH 7.5 with 0.5 mM NAD^+, 10% DMSO, and 20 μM H3K9ac or H3K9myr peptides, unless otherwise noted in legend, and quenched by the addition of 2% TFA final. Steady-state reactions were constrained to less than 20% substrate turnover to prevent product inhibition. A variety of times were required to monitor SIRT6 deacetylation (2-60 minutes) under this restraint given the ability to strongly activate catalysis. In these cases, specific activities were determined and either reported as is or as fold-activation of specific activity. […] Deacetylation reactions were analyzed using a gradient of 33-100% B (30% acetonitrile with 0.05% TFA) in 8 min at 1.6 mL min^−1. Demyristoylation reactions were analyzed using a gradient of 3 to 100% B (acetonitrile with 0.05% TFA) in 10 min at 1.6 mL min^−1. The product and substrate peaks were quantified and ratio of these allowed for quantification of product formation.

SIRT6 [2] = target: T1, SIRT6; test: SIRT6 deacetylation of H3K9ac peptide, fold-activation versus activator concentration; conditions: for EC50: H3K9ac peptide 20 μM, sigmoidal curve fit
Protocol: (1A) Compound libraries BML-2803, BML-2800, and an additional set of 178 molecules were screened at 100 μM for their ability to stimulate SIRT6 (1 μM) deacetylation of H3K9ac peptide (20 μM) in the presence of 0.5 mM NAD^+. SIRT6 activity was measured by HPLC quantification of H3K9ac and deacetylated product (inset) and fold activations relative to DMSO control were determined and compiled. (1B) Fold-activation of SIRT6 (1 μM) determined in the presence of either 0-400 μM CL4, 0-150 μM TTNPB, 0-100 μM Lysophosphatidic acid (LPA), or 0-200 μM linoleoylglycine (LGly). Maximum fold-activation and EC50 determined by sigmoidal curve fit. (1C) Steady-state kinetic analysis of SIRT6 (1 μM) deacetylation was conducted with 0-250 μM H3K9ac peptide in the presence of 100 μM CL4, 50 μM TTNPB, 50 μM LPA, or 50 μM LGly. Constants Km, H3K9ac and kcat were determined by fitting data to Michaelis-Menten equation. (1D) Fold-activations of SIRT1 (0.1 μM), SIRT2 (0.2 μM), SIRT3 (1 μM), SIRT5 (2 μM), and SIRT6 (1 μM) determined in the presence of CL4 (100 μM), TTNPB (50 μM), and LPA (50 μM) relative to DMSO control against 20 μM H3K9ac peptide and 0.5 mM NAD^+. Mean values reported with error bars representing standard deviation of at least three replicates.
All sirtuin deacylation assays were carried out at 37° C. in 20 mM potassium phosphate pH 7.5 with 0.5 mM NAD^+, 10% DMSO, and 20 μM H3K9ac or H3K9myr peptides, unless otherwise noted in legend, and quenched by the addition of 2% TFA final. Steady-state reactions were constrained to less than 20% substrate turnover to prevent product inhibition. A variety of times were required to monitor SIRT6 deacetylation (2-60 minutes) under this restraint given the ability to strongly activate catalysis. In these cases, specific activities were determined and either reported as is or as fold-activation of specific activity. Deacylation reactions were analyzed by reversed phase high-performance liquid chromatography on a Kinetex C18 column (100 Å, 100×4.6 mm, 2.6 μm, Phenomenex) by monitoring the formation of the deacylated product at 214 nm. Deacetylation reactions were analyzed using a gradient of 33-100% B (30% acetonitrile with 0.05% TFA) in 8 min at 1.6 mL min^−1. Demyristoylation reactions were analyzed using a gradient of 3 to 100% B (acetonitrile with 0.05% TFA) in 10 min at 1.6 mL min^−1. The product and substrate peaks were quantified and ratio of these allowed for quantification of product formation. […]

SIRT6 [3] = target: T1, SIRT6; test: Histone deacetylation assay with acid extracted histones, H3K9ac immunoblot; conditions: 50 μM compound; histones 75 μg/mL from SAHA-treated HEK293T cells; SIRT6 1 μM
Protocol: HEK293T cells were cultured in Dulbecco's Modified Eagle Medium supplemented with 10% fetal bovine serum. Cells were treated with 10 μM SAHA for 24 hours prior to harvest. Cells were trypsinized and pelleted prior to washing twice with ice-cold PBS. Cells were then resuspended in 800 μL ice-cold 10 mM HEPES pH 7.4, 10 mM KCl, 0.05% NP-40, and histone deacetylase and protease inhibitors (1 mM sodium butyrate, 4 μM trichostatin A, 100 μM phenylmethylsulfonyl fluoride, 10 μg/mL leupeptin, and 10 μg/mL aprotinin) for 20 minutes. After a 1,000×g 10 minute spin at 4° C. the pelleted nuclei were resuspended in 0.2 M HCl and incubated on ice for 20 minutes. Following 10 minute spin at 21,000×g at 4° C. the acid extracted supernatant was neutralized with 1 M Tris-HCl pH 8 prior to BCA protein concentration measurement. Histone deacetylation assays were ran with 75 μg/mL extracted histones, 1 μM SIRT6, 50 μM CL5, CL5D or 5% DMSO control, 0.5 mM NAD^+, in 20 mM potassium phosphate pH 7.5. Reactions ran at 37° C. prior to quench with SDS loading dye and 5 minute boil. 540 ng of nuclei acid extract following sirtuin reaction were loaded for 15% SDS-PAGE followed by transfer to nitrocellulose. Membrane was blocked with 1% milk before blotted with anti-H3K9ac (Active Motiff 39917) 1:3000 and imaged. […] Bands were quantified using Image Studio Lite (LiCor). […]

T1 sequence (Q8N6T7 whole entry): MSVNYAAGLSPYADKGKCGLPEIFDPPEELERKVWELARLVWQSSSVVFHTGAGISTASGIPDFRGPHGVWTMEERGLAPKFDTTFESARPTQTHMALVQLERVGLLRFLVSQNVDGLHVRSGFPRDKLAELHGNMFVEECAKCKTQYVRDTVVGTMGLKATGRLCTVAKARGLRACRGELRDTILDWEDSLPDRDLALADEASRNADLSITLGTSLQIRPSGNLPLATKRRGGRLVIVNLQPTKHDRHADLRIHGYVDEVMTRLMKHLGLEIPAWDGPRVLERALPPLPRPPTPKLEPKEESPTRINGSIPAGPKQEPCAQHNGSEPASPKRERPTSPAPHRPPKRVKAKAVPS

Compound | F.A. (fold-activation of SIRT6 relative to DMSO control) (SIRT6 [1]) [fold] | also measured
CCCCCCCCCCCCCCC(F)C(=O)O (stereo not shown) [2-Fluoropalmitic acid] | 25 | 
O=C(O)c1ccc2c(c1)C(=O)N(c1ccc(NC(=O)c3ccccc3)cc1)C2=O [CL-5, 2-(4-benzamidophenyl)-1,3-dioxoisoindoline-5-carboxylic acid] |  | concentration required to stimulate 4-fold activation of SIRT6 (SIRT6 [2]; SIRT6 1 μM, H3K9ac 20 μM, 0.5 mM NAD+): >400 µM; activation of SIRT6 (in words) (SIRT6 [2]; concentrations up to 400 μM): no activation; SIRT6 deacetylation at H3K9 of whole histone substrate (in words) (SIRT6 [3]): not
CCCCCCCCCCCCCC(=O)O [myristic acid] | 3.7 | 
C/C(=C\c1ccc(C(=O)O)cc1)c1ccc2c(c1)C(C)(C)CCC2(C)C [TTNPB, arotinoid acid, reference compound] |  | EC50 (SIRT6 [2]; SIRT6 1 μM, 0.5 mM NAD+): 53 ± 3 µM
CCCCCCCC/C=C\C/C=C\C/C=C\CCCC(=O)O [Mead acid (20:3 n-9)] | 16 | 
CCCCCCCC/C=C\CCCCCCCC(=O)OCC(O)COP(=O)(O)O (stereo not shown) [Lysophosphatidic acid, oleoyl-lysophosphatidic acid, reference compound] |  | EC50 (SIRT6 [2]; SIRT6 1 μM, 0.5 mM NAD+): 25 ± 1 µM
Eicosatrienoic acid (20:3 n-3) | 17 | 
CCCCC/C=C\C/C=C\C/C=C\C/C=C\CCCC(=O)O [Arachidonic acid (20:4 n-6)] | 15 | 
